According to US10231954B2, “Neurodegenerative therapies” (LYTIX BIOPHARMA AS, priority 2014, dated 2019):
Like-named read-outs stand apart in the source and are kept apart here.

Assays:
Assay type in all cases: biochemical
[1] = target: MNK2 (Homo sapiens, UniProt Q9HBH9); assay: Kinase profiling MNK2; settings: for remaining activity at 100 µM: read-out: residual kinase activity, MNK2
Description: (§1) Any value less that 25 is considered to be highly significant inhibition.

[2] = target: MAPKAP-K2 (Homo sapiens, UniProt P49137); assay: Kinase profiling MAPKAP-K2; settings: for remaining activity at 100 µM: read-out: residual kinase activity, MAPKAP-K2
Description: as §1

[3] = target: CDK2-Cyclin A (Homo sapiens, UniProt P24941); assay: Kinase profiling CDK2-Cyclin A; settings: for remaining activity at 100 µM: read-out: residual kinase activity, CDK2-Cyclin A
Description: as §1

[4] = target: MARK2 (Homo sapiens, UniProt Q7KZI7); assay: Kinase profiling MARK2; settings: for remaining activity at 100 µM: read-out: residual kinase activity, MARK2
Description: as §1

[5] = target: T1, NUAK1 (Homo sapiens, UniProt O60285); assay: Kinase profiling NUAK1; settings: for remaining activity at 100 µM: read-out: residual kinase activity, NUAK1
T1 sequence (O60285 1-661): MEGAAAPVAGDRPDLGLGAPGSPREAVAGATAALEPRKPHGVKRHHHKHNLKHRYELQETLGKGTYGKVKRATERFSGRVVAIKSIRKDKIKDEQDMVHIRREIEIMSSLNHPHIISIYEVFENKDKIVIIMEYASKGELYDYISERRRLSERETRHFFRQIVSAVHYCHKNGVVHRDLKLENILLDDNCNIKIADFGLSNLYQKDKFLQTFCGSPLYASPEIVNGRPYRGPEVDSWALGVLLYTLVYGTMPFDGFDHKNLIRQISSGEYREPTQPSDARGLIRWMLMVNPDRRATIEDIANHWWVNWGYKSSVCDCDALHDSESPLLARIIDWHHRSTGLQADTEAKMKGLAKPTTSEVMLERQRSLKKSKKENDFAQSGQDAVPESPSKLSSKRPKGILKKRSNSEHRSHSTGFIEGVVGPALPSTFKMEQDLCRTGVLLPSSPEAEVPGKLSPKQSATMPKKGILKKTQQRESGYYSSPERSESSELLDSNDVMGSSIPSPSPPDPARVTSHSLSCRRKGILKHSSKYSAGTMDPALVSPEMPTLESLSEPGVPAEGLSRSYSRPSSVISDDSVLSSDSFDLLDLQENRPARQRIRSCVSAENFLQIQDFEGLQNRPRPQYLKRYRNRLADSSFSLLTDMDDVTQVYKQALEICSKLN
Description: as §1

[6] = target: PAK6 (Homo sapiens, UniProt Q9NQU5); assay: Kinase profiling PAK6; settings: for remaining activity at 100 µM: read-out: residual kinase activity, PAK6
Description: as §1

[7] = target: MST4 (Homo sapiens, UniProt Q9P289); assay: Kinase profiling MST4; settings: for remaining activity at 100 µM: read-out: residual kinase activity, MST4
Description: as §1

[8] = target: TESK1 (Homo sapiens, UniProt Q15569); assay: Kinase profiling TESK1; settings: for remaining activity at 100 µM: read-out: residual kinase activity, TESK1
Description: as §1

[9] = target: YES1 (Homo sapiens, UniProt P07947); assay: Kinase profiling YES1; settings: for remaining activity at 100 µM: read-out: residual kinase activity, YES1
Description: as §1

[10] = target: T2, EPH-B3 (Homo sapiens, UniProt P54753); assay: Kinase profiling EPH-B3; settings: for remaining activity at 100 µM: read-out: residual kinase activity, EPH-B3
T2 sequence (P54753 34-998): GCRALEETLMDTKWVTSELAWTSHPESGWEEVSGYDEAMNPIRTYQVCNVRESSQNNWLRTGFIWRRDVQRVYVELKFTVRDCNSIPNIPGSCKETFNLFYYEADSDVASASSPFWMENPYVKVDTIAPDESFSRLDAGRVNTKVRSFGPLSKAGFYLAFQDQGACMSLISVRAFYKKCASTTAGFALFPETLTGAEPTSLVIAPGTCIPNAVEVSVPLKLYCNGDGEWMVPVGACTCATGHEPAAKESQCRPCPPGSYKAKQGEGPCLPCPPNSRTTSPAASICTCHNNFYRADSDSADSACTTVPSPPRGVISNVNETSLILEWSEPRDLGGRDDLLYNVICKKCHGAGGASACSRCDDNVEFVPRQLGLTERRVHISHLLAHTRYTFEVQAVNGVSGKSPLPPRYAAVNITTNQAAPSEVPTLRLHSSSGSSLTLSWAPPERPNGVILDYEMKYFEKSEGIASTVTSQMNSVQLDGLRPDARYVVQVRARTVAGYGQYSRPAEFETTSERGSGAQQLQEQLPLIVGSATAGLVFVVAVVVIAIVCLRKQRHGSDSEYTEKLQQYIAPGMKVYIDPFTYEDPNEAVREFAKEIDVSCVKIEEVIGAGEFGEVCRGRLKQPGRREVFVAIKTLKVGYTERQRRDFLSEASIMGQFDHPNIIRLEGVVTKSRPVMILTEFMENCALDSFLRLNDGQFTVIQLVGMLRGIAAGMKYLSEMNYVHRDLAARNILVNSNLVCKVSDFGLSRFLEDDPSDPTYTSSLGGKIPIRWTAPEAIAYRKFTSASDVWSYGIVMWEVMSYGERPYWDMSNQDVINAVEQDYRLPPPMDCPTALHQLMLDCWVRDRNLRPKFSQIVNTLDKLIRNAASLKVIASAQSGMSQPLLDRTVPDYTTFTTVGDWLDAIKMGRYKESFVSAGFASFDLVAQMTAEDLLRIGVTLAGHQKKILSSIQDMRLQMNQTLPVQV
Description: as §1

[11] = target: PDGFRA (Homo sapiens, UniProt P16234); assay: Kinase profiling PDGFRA; settings: for remaining activity at 100 µM: read-out: residual kinase activity, PDGFRA
Description: as §1

[12] = 100 micromolar inhibitor concentration, 100 is no change
[13] = 100 micromolar inhibitor, 100 = no change

MARK2, sequence (Q7KZI7 whole entry, species assumed): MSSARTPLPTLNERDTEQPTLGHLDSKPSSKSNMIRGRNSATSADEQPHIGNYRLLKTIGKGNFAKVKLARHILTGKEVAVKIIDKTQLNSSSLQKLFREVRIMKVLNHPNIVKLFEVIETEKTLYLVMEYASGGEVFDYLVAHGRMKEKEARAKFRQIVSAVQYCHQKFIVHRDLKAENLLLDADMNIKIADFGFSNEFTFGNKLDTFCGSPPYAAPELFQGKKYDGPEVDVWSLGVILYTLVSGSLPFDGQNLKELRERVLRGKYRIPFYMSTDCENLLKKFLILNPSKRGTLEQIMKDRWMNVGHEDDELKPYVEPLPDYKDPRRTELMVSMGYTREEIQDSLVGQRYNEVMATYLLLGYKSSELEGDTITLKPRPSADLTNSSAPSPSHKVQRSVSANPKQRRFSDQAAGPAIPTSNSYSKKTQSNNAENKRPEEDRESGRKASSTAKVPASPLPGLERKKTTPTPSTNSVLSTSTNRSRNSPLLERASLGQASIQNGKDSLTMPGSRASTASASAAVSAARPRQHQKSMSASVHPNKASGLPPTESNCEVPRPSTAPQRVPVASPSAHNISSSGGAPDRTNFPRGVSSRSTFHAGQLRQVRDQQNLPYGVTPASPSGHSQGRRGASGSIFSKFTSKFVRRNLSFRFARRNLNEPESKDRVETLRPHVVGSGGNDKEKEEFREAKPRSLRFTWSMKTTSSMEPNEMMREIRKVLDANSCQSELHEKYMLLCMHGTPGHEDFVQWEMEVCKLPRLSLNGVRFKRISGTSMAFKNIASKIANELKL
MAPKAP-K2, sequence (P49137 whole entry, species assumed): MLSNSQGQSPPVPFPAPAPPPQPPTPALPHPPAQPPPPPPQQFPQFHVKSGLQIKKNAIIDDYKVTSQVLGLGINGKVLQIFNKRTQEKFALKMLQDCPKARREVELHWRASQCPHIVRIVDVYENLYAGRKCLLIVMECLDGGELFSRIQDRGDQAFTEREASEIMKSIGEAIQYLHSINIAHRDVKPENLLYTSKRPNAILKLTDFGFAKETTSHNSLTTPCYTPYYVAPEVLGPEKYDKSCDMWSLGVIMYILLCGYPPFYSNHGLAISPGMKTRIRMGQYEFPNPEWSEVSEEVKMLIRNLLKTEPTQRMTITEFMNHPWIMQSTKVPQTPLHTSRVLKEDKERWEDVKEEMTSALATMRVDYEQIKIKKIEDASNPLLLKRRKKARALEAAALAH
PDGFRA, sequence (P16234 24-1089, species assumed): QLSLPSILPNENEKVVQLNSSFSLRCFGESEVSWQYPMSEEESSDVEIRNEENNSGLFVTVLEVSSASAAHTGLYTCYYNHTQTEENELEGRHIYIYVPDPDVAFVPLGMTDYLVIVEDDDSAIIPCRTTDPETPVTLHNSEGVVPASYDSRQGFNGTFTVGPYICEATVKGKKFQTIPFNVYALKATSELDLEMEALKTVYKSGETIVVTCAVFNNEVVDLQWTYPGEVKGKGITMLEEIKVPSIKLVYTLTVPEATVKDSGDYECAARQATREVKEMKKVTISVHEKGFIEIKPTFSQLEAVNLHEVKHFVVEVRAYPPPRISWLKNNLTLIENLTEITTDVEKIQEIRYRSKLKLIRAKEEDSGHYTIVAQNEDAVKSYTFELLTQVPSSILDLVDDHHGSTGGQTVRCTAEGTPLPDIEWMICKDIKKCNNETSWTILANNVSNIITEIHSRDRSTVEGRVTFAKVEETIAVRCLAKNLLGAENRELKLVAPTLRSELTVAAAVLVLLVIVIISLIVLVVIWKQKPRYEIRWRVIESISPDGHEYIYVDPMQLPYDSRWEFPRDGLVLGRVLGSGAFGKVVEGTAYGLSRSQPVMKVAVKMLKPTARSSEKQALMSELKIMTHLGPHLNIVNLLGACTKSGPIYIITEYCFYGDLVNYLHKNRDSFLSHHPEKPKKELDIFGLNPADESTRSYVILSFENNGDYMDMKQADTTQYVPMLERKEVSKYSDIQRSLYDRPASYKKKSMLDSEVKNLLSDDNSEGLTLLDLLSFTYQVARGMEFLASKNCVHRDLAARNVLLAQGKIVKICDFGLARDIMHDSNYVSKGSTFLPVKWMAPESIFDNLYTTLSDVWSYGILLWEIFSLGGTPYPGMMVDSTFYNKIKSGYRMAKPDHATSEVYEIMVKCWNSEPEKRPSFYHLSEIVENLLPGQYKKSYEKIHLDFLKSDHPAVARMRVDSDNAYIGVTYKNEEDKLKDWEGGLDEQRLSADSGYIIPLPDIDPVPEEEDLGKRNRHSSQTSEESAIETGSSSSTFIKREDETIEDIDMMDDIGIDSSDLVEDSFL
TESK1, sequence (Q15569 whole entry, species assumed): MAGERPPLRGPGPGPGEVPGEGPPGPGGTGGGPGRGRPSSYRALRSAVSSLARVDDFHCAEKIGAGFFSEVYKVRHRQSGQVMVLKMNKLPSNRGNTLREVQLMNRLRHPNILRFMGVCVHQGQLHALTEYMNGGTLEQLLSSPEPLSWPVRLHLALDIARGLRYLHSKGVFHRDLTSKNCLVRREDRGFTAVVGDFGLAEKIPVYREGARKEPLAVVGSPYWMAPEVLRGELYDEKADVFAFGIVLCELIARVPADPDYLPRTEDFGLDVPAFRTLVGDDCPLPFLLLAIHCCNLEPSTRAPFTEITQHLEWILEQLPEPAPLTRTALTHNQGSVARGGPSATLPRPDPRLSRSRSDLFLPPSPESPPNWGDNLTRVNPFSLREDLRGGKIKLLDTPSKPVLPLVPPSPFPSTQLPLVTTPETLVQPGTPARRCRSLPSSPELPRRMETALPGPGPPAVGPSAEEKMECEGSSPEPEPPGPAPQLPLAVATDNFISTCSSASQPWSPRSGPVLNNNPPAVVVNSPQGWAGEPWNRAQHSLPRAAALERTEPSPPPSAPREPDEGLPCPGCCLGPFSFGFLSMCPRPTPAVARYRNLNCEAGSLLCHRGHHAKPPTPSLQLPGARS
MNK2, sequence (Q9HBH9 whole entry, species assumed): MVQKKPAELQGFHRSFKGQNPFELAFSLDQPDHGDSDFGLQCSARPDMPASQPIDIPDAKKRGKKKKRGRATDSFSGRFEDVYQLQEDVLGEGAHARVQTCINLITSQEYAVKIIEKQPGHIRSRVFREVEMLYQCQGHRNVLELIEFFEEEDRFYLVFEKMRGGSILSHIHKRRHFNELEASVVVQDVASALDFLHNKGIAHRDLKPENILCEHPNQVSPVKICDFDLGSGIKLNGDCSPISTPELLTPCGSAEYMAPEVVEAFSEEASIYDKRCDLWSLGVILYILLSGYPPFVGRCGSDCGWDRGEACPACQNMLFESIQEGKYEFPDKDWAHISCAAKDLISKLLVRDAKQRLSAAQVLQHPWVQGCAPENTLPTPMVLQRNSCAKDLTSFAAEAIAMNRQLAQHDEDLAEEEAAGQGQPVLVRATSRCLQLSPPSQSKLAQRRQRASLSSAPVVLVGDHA
MST4, sequence (Q9P289 whole entry, species assumed): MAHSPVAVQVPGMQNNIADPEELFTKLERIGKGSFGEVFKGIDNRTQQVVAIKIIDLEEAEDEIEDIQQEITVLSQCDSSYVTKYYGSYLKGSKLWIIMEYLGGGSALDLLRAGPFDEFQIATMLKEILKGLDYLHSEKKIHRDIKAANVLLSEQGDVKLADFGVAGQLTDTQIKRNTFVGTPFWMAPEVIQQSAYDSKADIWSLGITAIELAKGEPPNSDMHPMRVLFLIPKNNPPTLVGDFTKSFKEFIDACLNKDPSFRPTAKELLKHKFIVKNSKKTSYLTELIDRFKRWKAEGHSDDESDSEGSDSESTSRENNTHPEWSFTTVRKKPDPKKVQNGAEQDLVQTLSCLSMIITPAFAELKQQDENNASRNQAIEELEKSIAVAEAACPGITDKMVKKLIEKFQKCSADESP
YES1, sequence (P07947 whole entry, species assumed): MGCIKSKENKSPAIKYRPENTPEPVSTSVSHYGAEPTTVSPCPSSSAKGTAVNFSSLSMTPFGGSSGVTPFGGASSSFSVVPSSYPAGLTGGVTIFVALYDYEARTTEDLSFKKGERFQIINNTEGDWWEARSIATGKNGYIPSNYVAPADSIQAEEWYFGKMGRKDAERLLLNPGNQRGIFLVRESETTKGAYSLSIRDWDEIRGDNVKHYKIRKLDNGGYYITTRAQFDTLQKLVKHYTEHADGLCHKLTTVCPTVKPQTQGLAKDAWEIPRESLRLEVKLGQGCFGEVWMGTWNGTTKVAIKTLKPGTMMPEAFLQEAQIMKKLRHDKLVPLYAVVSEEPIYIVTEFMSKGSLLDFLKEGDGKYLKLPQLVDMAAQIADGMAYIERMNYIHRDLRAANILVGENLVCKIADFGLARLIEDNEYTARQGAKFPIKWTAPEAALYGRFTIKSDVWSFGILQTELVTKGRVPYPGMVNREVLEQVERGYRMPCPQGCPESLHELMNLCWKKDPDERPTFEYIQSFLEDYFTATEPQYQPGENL
PAK6, sequence (Q9NQU5 whole entry, species assumed): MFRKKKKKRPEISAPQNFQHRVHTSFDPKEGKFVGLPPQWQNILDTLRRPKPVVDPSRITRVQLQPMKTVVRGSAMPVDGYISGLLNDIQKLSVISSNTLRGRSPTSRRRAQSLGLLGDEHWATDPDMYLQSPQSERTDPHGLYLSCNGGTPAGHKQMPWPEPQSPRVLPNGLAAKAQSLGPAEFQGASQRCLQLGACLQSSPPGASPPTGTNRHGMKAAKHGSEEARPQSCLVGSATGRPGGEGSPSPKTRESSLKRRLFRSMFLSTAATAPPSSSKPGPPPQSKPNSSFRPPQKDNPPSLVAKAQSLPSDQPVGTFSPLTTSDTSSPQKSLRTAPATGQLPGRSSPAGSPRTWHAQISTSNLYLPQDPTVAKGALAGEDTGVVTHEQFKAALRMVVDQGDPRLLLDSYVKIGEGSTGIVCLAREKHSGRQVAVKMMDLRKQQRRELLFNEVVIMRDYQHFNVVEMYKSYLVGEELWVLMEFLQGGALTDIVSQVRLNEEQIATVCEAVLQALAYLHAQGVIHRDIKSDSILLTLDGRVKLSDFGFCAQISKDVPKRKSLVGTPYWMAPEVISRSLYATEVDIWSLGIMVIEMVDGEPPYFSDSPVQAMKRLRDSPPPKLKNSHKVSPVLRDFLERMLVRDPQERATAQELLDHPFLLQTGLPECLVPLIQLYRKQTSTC

| SMILES | remaining activity at 100 µM [1, 12] [%] | remaining activity at 100 µM [2, 12] [%] | remaining activity at 100 µM [3, 12] [%] | remaining activity at 100 µM [4, 12] [%] | remaining activity at 100 µM [5, 12] [%] | remaining activity at 100 µM [6, 12] [%] | remaining activity at 100 µM [7, 12] [%] | remaining activity at 100 µM [8, 12] [%] | remaining activity at 100 µM [9, 12] [%] | remaining activity at 100 µM [10, 12] [%] | residual kinase activity, MNK2 [1, 12] | residual kinase activity, MAPKAP-K2 [2, 12] | residual kinase activity, CDK2-Cyclin A [3, 12] | residual kinase activity, MARK2 [4, 12] | residual kinase activity, NUAK1 [5, 12] | residual kinase activity, PAK6 [6, 12] | residual kinase activity, MST4 [7, 12] | residual kinase activity, TESK1 [8, 12] | residual kinase activity, YES1 [9, 12] | residual kinase activity, EPH-B3 [10, 12] | further results |
| --- | --- | --- | --- | --- | --- | --- | --- | --- | --- | --- | --- | --- | --- | --- | --- | --- | --- | --- | --- | --- | --- |
| CC(=O)Nc1nc2cc(O)ccc2s1 [Compound 01-66, N-(5-hydroxybenzo[d]thiazol-2-yl)acetamide] |  |  |  |  |  |  |  |  |  |  |  |  |  |  |  |  |  |  |  |  | remaining activity at 100 µM [1]: 33%; remaining activity at 100 µM [2]: 77%; remaining activity at 100 µM [3]: 71%; remaining activity at 100 µM [4]: 63%; remaining activity at 100 µM [5]: 44%; remaining activity at 100 µM [6]: 90%; remaining activity at 100 µM [7]: 84%; remaining activity at 100 µM [8]: 94%; remaining activity at 100 µM [9]: 72%; remaining activity at 100 µM [10]: 83% |
| CC(=O)Nc1nc2ccc(O)cc2s1 [Compound 01-71] | 34 | 46 | 30 | 54 | 26 | 81 | 70 | 61 | 59 | 66 |  |  |  |  |  |  |  |  |  |  |  |
| CC(=O)Nc1nc2ccc(C(F)(F)F)cc2s1 [Compound 01-90] | 71 | 90 | 22 | 74 | 66 | 106 | 89 | 93 | 57 | 89 |  |  |  |  |  |  |  |  |  |  | remaining activity at 100 µM [11, 12]: 30% |
| CC(=O)Nc1nc2ccc(C#N)cc2s1 [Compound 01-94] | 50 | 65 | 11 | 53 | 46 | 92 | 75 | 90 | 86 | 72 |  |  |  |  |  |  |  |  |  |  | remaining activity at 100 µM [11, 12]: 40% |
| CC(=O)Nc1cccc(NC(=O)c2nc3ccc(O)cc3s2)c1 [Compound 03-07, N-(3-acetamidophenyl)-6-hydroxybenzo[d]thiazole-2-carboxamide] |  |  |  |  |  |  |  |  |  |  |  |  |  |  |  |  |  |  |  |  | remaining activity at 100 µM [1, 13]: 50%; remaining activity at 100 µM [2, 13]: 51%; remaining activity at 100 µM [3, 13]: 99%; remaining activity at 100 µM [4, 13]: 73%; remaining activity at 100 µM [5, 13]: 37%; remaining activity at 100 µM [6, 13]: 106%; remaining activity at 100 µM [7, 13]: 76%; remaining activity at 100 µM [8, 13]: 101%; remaining activity at 100 µM [9, 13]: 49%; remaining activity at 100 µM [10, 13]: 64%; remaining activity at 100 µM [11, 13]: 44% |
| O=C(Nc1nc2cc(O)ccc2s1)c1ccncc1 [Compound 03-11] |  |  |  |  |  |  |  |  |  |  | 75 | 82 | 98 | 79 | 86 | 90 | 134 | 88 | 82 | 76 | residual kinase activity, PDGFRA [11, 12]: 63 |
| O=C(Nc1nc2ccc(O)cc2s1)c1ccccn1 [Compound 03-12] |  |  |  |  |  |  |  |  |  |  | 66 | 43 | 87 | 90 | 52 | 101 | 80 | 84 | 73 | 63 | residual kinase activity, PDGFRA [11, 12]: 56 |
| O=C(Nc1nc2cc(O)ccc2s1)c1ccccn1 [Compound 03-13] |  |  |  |  |  |  |  |  |  |  | 66 | 98 | 91 | 84 | 64 | 99 | 76 | 93 | 60 | 44 | residual kinase activity, PDGFRA [11, 12]: 43 |
| COc1ccc2sc(NC(C)=O)nc2c1 [Compound 03-21] | 84 | 108 | 93 | 103 | 84 | 108 | 88 | 104 | 93 | 106 |  |  |  |  |  |  |  |  |  |  | remaining activity at 100 µM [11, 12]: 87% |
| CC(=O)Nc1nc2ccccc2s1 [Compound 03-32] |  |  |  |  |  |  |  |  |  |  | 91 | 102 | 76 | 88 | 74 | 92 | 110 | 95 | 93 | 71 | residual kinase activity, PDGFRA [11, 12]: 78 |
